Legend:
[1] = biological target: Dual specificity protein kinase CLK2 (Homo sapiens) (UniProt P49760); experiment: Inhibition of CLK2 (unknown origin) at 10 uM after 120 mins P33 radiolabeled kinase activity assay
[2] = biological target: T1, Ephrin type-B receptor 2 (Homo sapiens) (UniProt P29323); experiment: Inhibition of EPHB2 (unknown origin) at 10 uM after 120 mins P33 radiolabeled kinase activity assay
T1 sequence (whole entry): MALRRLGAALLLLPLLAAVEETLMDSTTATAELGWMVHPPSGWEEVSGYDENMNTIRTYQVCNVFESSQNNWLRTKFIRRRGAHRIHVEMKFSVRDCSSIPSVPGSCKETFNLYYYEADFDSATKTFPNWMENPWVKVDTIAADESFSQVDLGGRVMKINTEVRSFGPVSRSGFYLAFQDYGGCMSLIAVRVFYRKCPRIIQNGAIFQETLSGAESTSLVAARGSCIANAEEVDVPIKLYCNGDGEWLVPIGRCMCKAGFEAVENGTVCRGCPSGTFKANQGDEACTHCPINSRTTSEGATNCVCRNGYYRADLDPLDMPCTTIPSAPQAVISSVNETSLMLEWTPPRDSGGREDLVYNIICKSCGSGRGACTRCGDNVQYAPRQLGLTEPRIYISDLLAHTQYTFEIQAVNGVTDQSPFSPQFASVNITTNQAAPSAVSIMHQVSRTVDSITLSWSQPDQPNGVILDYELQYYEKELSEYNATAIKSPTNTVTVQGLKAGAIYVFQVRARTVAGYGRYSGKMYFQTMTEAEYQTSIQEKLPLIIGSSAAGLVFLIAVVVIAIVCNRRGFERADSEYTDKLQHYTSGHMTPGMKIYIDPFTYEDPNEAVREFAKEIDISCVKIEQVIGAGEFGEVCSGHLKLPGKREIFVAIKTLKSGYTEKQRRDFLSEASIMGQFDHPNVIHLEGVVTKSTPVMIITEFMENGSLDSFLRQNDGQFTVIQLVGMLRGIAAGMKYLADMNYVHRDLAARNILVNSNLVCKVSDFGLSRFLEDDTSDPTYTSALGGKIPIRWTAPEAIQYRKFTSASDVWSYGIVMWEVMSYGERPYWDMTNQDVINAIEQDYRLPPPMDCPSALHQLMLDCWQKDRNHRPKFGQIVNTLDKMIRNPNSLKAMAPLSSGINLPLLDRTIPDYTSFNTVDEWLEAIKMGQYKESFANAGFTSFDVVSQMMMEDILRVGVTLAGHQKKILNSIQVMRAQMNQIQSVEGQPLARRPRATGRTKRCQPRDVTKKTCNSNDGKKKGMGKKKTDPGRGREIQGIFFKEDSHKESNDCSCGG

[3] = biological target: Tyrosine-protein kinase Lck (Homo sapiens) (UniProt P06239); experiment: Inhibition of LCK (unknown origin) at 10 uM after 120 mins P33 radiolabeled kinase activity assay
[4] = biological target: Tyrosine-protein kinase HCK (Homo sapiens) (UniProt P08631); experiment: Inhibition of HCK (unknown origin) at 10 uM after 120 mins P33 radiolabeled kinase activity assay
[5] = biological target: Vascular endothelial growth factor receptor 2 (Homo sapiens) (UniProt P35968); experiment: Inhibition of KDR (unknown origin) at 10 uM after 120 mins P33 radiolabeled kinase activity assay
[6] = biological target: BDNF/NT-3 growth factors receptor (Homo sapiens) (UniProt Q16620); experiment: Inhibition of TRKB (unknown origin) at 10 uM after 120 mins P33 radiolabeled kinase activity assay
[7] = biological target: Misshapen-like kinase 1 (Homo sapiens) (UniProt Q8N4C8); experiment: Inhibition of MINK (unknown origin) at 10 uM after 120 mins P33 radiolabeled kinase activity assay
[8] = biological target: T2, Serine/threonine-protein kinase BRSK1 (Homo sapiens) (UniProt Q8TDC3); experiment: Inhibition of BRSK1 (unknown origin) at 10 uM after 120 mins P33 radiolabeled kinase activity assay
T2 sequence (whole entry): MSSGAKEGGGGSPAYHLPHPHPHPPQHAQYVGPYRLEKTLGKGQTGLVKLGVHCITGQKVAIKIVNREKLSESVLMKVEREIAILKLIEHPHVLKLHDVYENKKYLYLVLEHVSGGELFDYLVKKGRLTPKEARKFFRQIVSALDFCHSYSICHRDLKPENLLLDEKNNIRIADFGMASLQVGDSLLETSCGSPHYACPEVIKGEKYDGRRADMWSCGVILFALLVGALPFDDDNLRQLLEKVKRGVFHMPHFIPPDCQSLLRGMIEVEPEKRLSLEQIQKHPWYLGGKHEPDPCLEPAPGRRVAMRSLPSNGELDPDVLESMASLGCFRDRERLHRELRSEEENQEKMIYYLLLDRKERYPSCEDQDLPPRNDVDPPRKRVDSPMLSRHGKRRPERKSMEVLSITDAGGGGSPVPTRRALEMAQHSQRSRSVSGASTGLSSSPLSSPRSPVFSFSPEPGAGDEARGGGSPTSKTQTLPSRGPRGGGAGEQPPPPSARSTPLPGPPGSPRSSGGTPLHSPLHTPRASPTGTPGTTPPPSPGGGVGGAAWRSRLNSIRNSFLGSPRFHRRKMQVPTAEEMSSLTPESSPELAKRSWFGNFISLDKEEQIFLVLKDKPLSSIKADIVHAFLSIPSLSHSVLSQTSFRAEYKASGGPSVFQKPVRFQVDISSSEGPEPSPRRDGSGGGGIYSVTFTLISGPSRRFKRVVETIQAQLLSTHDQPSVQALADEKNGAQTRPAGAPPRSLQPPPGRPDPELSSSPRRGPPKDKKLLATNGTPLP

[9] = biological target: T3, Serine/threonine-protein kinase Chk1 (Homo sapiens) (UniProt O14757); experiment: Inhibition of CHK1 (unknown origin) at 10 uM after 120 mins P33 radiolabeled kinase activity assay
T3 sequence (whole entry): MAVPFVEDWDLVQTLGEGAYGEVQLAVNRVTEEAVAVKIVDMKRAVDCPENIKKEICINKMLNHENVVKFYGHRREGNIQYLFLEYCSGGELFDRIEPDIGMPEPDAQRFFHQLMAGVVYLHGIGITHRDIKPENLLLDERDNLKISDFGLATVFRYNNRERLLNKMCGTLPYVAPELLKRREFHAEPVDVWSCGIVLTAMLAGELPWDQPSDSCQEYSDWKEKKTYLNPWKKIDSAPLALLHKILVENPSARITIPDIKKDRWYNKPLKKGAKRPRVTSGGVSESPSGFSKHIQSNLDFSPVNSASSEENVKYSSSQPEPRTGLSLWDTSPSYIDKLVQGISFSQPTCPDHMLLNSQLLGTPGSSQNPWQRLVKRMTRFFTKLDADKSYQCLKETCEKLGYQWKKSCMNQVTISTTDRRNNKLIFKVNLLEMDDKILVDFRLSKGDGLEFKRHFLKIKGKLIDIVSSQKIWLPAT

Tyrosine-protein kinase Lck (Homo sapiens), sequence (P06239 2-509 limits assumed): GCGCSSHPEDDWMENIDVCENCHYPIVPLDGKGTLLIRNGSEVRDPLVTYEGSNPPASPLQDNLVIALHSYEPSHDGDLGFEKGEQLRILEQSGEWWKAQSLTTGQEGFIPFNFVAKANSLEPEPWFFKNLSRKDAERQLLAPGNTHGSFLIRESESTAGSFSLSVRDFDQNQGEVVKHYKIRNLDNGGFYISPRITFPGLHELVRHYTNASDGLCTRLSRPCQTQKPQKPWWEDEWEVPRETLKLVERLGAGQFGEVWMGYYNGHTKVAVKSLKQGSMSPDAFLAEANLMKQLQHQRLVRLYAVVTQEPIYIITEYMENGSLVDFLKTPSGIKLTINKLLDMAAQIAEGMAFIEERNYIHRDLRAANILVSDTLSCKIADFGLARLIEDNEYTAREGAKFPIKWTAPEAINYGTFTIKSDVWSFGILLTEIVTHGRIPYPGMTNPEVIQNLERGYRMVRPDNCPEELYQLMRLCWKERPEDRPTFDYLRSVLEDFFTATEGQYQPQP
Dual specificity protein kinase CLK2 (Homo sapiens), sequence (P49760 whole entry, looked up): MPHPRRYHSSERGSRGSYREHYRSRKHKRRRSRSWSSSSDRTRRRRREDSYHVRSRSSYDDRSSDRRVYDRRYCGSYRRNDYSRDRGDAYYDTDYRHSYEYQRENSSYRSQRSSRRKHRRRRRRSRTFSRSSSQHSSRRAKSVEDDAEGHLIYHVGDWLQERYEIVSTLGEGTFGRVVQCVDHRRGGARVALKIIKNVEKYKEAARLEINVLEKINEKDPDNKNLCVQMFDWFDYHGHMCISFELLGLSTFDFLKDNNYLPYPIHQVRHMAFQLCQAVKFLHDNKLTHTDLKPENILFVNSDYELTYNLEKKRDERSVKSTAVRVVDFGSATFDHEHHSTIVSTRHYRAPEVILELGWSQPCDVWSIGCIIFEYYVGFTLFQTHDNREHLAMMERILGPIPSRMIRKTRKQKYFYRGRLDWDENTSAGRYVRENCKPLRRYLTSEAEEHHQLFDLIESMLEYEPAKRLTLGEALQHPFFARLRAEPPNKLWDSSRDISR
BDNF/NT-3 growth factors receptor (Homo sapiens), sequence (Q16620 32-822 limits assumed): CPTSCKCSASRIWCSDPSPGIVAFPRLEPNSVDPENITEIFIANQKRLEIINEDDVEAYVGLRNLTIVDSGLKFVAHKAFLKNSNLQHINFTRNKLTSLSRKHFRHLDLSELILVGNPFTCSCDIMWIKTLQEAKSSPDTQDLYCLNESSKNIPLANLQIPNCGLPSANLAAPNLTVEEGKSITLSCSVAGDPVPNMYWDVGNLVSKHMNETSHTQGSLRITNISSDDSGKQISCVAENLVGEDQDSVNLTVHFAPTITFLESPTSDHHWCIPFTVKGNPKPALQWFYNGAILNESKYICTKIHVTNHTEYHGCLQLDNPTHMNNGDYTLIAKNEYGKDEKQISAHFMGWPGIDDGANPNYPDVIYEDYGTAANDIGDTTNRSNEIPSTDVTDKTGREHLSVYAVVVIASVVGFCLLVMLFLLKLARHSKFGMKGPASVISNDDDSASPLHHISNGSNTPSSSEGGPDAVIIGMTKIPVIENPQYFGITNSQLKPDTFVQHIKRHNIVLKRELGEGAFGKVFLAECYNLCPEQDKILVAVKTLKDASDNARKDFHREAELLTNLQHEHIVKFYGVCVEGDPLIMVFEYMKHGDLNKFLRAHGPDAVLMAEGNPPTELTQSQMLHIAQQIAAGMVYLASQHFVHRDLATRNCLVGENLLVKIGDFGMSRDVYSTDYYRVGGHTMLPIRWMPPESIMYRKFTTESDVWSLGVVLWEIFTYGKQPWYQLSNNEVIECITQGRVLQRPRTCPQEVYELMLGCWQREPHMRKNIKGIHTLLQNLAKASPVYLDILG
Misshapen-like kinase 1 (Homo sapiens), sequence (Q8N4C8 whole entry, looked up): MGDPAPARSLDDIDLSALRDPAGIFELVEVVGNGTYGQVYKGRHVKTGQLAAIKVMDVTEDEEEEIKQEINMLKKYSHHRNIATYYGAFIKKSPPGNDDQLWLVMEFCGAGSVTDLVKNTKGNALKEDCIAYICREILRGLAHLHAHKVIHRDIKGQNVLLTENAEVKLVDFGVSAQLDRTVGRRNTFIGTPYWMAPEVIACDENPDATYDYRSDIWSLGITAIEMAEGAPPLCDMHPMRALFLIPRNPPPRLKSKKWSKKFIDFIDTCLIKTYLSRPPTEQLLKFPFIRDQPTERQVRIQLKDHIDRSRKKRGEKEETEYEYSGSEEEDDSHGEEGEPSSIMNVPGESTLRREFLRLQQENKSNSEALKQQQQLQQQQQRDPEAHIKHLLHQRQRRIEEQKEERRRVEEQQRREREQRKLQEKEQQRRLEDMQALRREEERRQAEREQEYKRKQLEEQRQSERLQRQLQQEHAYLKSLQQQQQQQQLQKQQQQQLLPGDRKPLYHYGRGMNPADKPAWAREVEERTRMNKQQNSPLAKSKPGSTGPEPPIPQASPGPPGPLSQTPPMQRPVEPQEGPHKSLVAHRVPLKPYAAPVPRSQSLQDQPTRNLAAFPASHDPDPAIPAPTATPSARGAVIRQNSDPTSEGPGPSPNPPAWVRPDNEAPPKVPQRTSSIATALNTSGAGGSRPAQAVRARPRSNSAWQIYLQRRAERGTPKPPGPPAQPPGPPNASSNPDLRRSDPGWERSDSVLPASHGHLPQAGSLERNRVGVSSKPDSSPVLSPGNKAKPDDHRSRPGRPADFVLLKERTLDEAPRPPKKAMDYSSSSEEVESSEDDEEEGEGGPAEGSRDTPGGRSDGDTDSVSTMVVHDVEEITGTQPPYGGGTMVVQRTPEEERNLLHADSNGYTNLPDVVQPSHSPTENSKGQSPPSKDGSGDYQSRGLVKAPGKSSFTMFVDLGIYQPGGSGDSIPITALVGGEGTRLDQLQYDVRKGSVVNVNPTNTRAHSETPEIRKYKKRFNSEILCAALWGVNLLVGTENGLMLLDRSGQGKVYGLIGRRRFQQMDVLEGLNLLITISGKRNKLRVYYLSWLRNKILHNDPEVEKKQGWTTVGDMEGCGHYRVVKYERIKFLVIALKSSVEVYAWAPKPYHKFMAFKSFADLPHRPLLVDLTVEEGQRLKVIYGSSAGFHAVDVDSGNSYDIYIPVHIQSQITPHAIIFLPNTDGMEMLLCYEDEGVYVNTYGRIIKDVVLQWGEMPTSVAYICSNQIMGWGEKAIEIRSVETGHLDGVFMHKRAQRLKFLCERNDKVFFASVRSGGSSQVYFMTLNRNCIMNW
Tyrosine-protein kinase HCK (Homo sapiens), sequence (P08631 2-526 limits assumed): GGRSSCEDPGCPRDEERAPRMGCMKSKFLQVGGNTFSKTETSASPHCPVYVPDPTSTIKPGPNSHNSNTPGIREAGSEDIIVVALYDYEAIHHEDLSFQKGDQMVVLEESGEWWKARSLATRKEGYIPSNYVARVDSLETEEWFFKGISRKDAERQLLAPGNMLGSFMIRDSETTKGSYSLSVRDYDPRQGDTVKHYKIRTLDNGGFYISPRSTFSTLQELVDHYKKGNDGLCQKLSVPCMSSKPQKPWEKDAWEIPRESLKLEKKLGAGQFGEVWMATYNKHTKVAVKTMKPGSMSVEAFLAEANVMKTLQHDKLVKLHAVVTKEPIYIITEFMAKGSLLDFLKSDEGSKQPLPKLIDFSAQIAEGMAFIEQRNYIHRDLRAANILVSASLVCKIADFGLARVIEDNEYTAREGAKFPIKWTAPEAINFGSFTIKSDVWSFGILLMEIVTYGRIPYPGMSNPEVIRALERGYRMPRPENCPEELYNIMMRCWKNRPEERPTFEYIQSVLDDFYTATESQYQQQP
Vascular endothelial growth factor receptor 2 (Homo sapiens), sequence (P35968 whole entry): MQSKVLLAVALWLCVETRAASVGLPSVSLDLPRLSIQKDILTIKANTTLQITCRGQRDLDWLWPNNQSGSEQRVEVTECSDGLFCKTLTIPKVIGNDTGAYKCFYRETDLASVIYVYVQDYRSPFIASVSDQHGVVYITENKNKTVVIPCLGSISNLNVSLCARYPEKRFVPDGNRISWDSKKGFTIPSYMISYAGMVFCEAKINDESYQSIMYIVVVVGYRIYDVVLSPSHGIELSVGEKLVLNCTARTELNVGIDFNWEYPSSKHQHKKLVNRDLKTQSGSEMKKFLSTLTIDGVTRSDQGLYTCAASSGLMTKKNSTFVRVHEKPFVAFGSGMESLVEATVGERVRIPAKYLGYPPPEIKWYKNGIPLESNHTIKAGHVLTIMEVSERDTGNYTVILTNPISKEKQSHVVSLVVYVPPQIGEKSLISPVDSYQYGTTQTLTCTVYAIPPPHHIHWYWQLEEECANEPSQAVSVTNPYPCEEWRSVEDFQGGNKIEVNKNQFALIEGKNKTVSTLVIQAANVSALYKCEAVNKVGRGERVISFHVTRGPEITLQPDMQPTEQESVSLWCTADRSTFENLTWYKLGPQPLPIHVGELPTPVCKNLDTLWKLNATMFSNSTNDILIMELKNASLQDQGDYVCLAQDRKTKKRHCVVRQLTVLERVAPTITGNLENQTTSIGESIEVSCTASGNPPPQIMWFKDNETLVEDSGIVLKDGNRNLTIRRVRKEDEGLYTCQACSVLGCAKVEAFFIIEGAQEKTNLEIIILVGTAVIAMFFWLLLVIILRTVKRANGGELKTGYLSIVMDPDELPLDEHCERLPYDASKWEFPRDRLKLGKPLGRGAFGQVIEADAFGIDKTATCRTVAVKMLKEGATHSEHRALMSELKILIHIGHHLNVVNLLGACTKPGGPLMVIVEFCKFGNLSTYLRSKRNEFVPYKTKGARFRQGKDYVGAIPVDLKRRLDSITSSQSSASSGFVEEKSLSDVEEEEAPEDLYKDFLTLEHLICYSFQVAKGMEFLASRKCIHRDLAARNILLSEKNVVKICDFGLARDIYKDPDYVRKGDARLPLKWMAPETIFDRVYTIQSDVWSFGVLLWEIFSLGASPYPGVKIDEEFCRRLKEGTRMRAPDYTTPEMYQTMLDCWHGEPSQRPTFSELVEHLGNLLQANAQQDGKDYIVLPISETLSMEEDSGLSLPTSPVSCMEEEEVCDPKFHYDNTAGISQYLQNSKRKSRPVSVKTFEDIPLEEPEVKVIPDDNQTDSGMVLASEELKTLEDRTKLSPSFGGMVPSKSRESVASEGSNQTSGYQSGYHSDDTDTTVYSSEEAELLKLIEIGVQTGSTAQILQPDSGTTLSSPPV

SMILES	inhibition [1] [%]	inhibition [2] [%]	inhibition [3] [%]	inhibition [4] [%]	inhibition [5] [%]	inhibition [6] [%]	inhibition [7] [%]	inhibition [8] [%]	inhibition [9] [%]
COCCNC(=O)c1ccc2c(c1)nc(-c1cnc(-c3ccc(Cl)cc3)[nH]1)n2CCOC	7.06	20.3	52.8	70	7.13	4.41	60.7	18.7	15.3
CS(=O)(=O)c1cccc(Nc2nccc(-c3sc(N4CCOCC4)nc3-c3cccc(NS(=O)(=O)c4c(F)cccc4F)c3)n2)c1	24.5	74.9	99.9	99.2	96.3	61.5	62.5	49.8	10.9
CC(C)(C)c1cc(NC(=O)Nc2ccc(Oc3ccncc3)cc2)no1	28.8	97.7	95.3	91.1	98.6	96.7	100	16.8	-0.09
